This is an account of results in publication PMC7094737 (Journal of Molecular Biology, 2008).

Experiment [1] has as its target T1, MDO1 (Homo sapiens, UniProt Q9BQ69).
T1 sequence (Q9BQ69 83-325): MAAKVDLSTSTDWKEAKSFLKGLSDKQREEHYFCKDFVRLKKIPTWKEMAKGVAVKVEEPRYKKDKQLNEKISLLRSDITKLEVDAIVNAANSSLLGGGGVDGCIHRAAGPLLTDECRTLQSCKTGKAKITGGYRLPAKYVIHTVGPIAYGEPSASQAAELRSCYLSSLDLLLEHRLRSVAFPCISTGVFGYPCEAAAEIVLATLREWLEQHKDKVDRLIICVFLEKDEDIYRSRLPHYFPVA
Briefly: ADPR-1″P hydrolysis. To be noted: by MDO1; Fig. 2, TLC. It is filed as biochemical.

The target of experiment [2] is T2, SFV macro (nsP3) (Semliki forest virus, UniProt P08411).
T2 sequence (P08411 1337-1503 limits assumed): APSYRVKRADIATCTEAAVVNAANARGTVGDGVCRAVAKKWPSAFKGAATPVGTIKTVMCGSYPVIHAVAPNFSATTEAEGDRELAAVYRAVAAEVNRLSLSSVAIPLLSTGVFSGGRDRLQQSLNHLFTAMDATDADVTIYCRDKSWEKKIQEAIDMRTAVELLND
The experiment is described as follows: ADPR-1″P hydrolysis. It is filed as biochemical. To be noted: by SFV nsP3 (167-aa and 328-aa similar); Fig. 2, TLC.

Experiment [3] addresses T3, GDAP2 (Homo sapiens, UniProt Q9NXN4).
T3 sequence (Q9NXN4 1-231 isoform Q9NXN4-2): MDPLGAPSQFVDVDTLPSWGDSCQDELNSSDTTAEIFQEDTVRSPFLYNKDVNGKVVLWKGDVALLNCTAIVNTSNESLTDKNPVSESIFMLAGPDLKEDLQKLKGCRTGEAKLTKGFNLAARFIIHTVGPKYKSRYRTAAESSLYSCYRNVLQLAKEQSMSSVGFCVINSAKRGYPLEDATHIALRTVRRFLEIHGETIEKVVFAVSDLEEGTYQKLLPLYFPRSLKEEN
Briefly: ADPR-1″P hydrolysis. It is filed as biochemical. As to conditions: by GDAP2; Fig. 2, TLC.

In experiment [4] the target is T4, MDO2 (Homo sapiens, UniProt A1Z1Q3).
T4 sequence (A1Z1Q3 1-243): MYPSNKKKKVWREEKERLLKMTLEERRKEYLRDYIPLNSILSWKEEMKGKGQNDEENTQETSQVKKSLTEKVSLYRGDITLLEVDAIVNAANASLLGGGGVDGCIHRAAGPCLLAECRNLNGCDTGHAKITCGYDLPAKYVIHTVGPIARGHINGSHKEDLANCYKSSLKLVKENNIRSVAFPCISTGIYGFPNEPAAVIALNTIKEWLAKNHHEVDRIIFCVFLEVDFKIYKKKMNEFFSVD
Briefly: ADPR-1″P hydrolysis. To be noted: by MDO2; Fig. 2, TLC. It is filed as biochemical.

Experiment [5] has as its system macro domains. The experiment is described as follows: Filter binding with radioactive NAD+ alone.
Experiment [6] concerns the target T1, MDO1. Briefly: Competition for poly. It is filed as binding. To be noted: data not shown.
Experiment [7] addresses T5, SFV macro (Semliki forest virus, UniProt P08411).
T5 sequence (P08411 1337-1495 limits assumed): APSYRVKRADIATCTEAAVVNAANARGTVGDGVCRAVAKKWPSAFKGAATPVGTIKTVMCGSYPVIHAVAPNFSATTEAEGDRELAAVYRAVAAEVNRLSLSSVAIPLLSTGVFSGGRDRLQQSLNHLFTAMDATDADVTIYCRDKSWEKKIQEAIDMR
Briefly: Competition for poly. It is filed as binding. To be noted: data not shown.

Experiment [8] addresses T1, MDO1. It is filed as binding. As to conditions: MDO1, 500 mM NaCl, data not shown.
Experiment [9] addresses T6, HEV macro (Hepatitis E virus genotype 1, UniProt P29324).
T6 sequence (P29324 775-960): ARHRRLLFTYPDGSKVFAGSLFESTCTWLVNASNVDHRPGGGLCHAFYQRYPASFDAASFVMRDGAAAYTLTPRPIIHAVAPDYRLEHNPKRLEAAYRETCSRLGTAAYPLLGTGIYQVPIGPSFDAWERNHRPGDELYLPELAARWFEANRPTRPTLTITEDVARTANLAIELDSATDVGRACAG
Briefly: Competition for poly. It is filed as binding. To be noted: data not shown.

Experiment [10] has as its target T4, MDO2. The experiment is described as follows: [32P]poly. It is filed as binding. To be noted: to MDO2; Fig. 3c.
Experiment [11] addresses T3, GDAP2. The experiment is described as follows: [32P]poly. It is filed as binding. To be noted: to GDAP2; Fig. 3c.
Experiment [12] concerns macro proteins. It is filed as biochemical.
In experiment [13] the target is T7, MDO1 G182Y + G270Y (Homo sapiens, UniProt Q9BQ69, G182Y/G270Y).
T7 sequence (Q9BQ69 83-325 G182Y/G270Y): T1 sequence (Q9BQ69 83-325) with G100Y, G188Y
It is filed as binding. As to conditions: filter washed with 1 M NaCl, not shown.

Experiment [14] addresses T3, GDAP2. It is filed as binding. To be noted: to GDAP2.
Experiment [15] deals with T1, MDO1. It is filed as binding. To be noted: to MDO1; Fig. 3b.
In experiment [16] the target is T8, Poa1p (Saccharomyces cerevisiae, UniProt P38218, S2A).
T8 sequence (P38218 1-177 S2A): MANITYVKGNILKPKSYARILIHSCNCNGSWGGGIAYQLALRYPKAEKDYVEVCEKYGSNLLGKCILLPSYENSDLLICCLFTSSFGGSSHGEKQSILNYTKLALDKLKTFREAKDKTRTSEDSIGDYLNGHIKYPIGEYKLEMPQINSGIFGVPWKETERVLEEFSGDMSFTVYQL
It is filed as binding. To be noted: to Poa1p; Fig. 3b.

The target of experiment [17] is T2, SFV macro (nsP3). It is filed as binding. As to conditions: to SFV macro; Fig. 3b.
For experiment [18], the target named is T4, MDO2. It is filed as binding. To be noted: to MDO2; Fig. 3b.
The target of experiment [19] is T6, HEV macro. It is filed as binding. As to conditions: to HEV macro; Fig. 3b.
Setting [20] is: monomeric ADP-ribose 1500-fold excess.
Setting [21] is: molar excess of poly(A) ∼ 400-fold.

Substitutions are numbered along the chain they refer to.

In the case of `Nc1ncnc2c1ncn2[C@@H]1O[C@H](COP(=O)(O)OP(=O)(O)OC[C@H]2O[C@H](OP(=O)(O)O)[C@H](O)[C@@H]2O)[C@@H](O)[C@H]1O` [ADPR-1″P, ADP-ribose-1″ phosphate], the “ADPR-1″P hydrolysis (in words)” value is “equally efficiently as yeast Poa1p” in experiment [1], “only a minor activity” in [2], “inactive” in experiment [3] and “equally efficiently as yeast Poa1p” in experiment [4].
In the case of `NC(=O)c1ccc[n+]([C@@H]2O[C@H](COP(=O)([O-])OP(=O)(O)OC[C@H]3O[C@@H](n4cnc5c(N)ncnc54)[C@H](O)[C@@H]3O)[C@@H](O)[C@H]2O)c1` [NAD ^+], in experiment [5], the “radioactive signal on filter-bound macro domains” value is recorded as “no radioactive signal”.
Turning to ADP-ribose, the “competition for the binding of poly(ADP-ribose)” value in [6] (setting [20]), in [7] (setting [20]) and in [9] (setting [20]) was “no competition” throughout. Also, the “dissociation constant in high-salt buffer versus standard conditions” value in experiment [8] was “approximately twofold”.
On to poly(A), for which the “competition for the binding of poly(ADP-ribose)” value in experiment [6] (setting [21]), in [7] (setting [21]) and in experiment [9] (setting [21]) was “no competition” each time. The “poly(A) binding (in words)” value in experiment [10] is recorded as “did not bind poly(A)”; in experiment [11], “bound poly(A)”.
For poly(ADP-ribose), the “poly(ADP-ribose) hydrolysis activity” value in experiment [12] is “None of the macro proteins degraded poly(ADP-ribose)”. Moreover, the “poly(ADP-ribose) binding after stringent wash” value in experiment [13] is on record as “did not have an effect on poly(ADP-ribose) binding”. The “poly(ADP-ribose) binding (in words)” value is given as “inefficient” in experiment [14]; “bound poly(ADP-ribose)” in experiment [15]; “did not show effective binding” in experiment [16]; “bound poly(ADP-ribose) effectively” in experiment [17]; “did not show effective binding” in experiment [18]; “bound poly(ADP-ribose) effectively” in [19].
